Experimental findings from ChEMBL document CHEMBL1129570, “2-(Hydroxyalkyl)estradiols: synthesis and biological evaluation” (J Med Chem, 1996) are described below.

Assay [1] concerns the target T1, Estrogen receptor (Homo sapiens, UniProt Q92731+P03372). As to the kind of experiment: (§1) Induction of pS2 mRNA expression in human MCF-7 mammary carcinoma cells. The class given is functional, cell-based. To be noted: mcf7.
Assay [2] has as its target T1, Estrogen receptor. In words: Affinity estrogen receptor of MCF-7 human mammary cancer cells. The class given is cell-based. To be noted: mcf7.
For assay [3], the target named is T1, Estrogen receptor. The description is as §1. The class given is functional, cell-based. To be noted: mcf7. This is another data set of the same source.
Assay [4] concerns the target T1, Estrogen receptor. In words: Affinity for estrogen receptor. In kind it is protein assay.

Structures are written as SMILES.

Regarding `C[C@]12CC[C@@H]3c4cc(CCCO)c(O)cc4CC[C@H]3[C@@H]1CC[C@@H]2O`, the values for the EC50 on Estrogen receptor [1], at Estrogen receptor [2] and at Estrogen receptor [3] were 0.004 nM, 5220 nM and 495 nM, respectively.
Take `C[C@]12CC[C@@H]3c4cc(CO)c(O)cc4CC[C@H]3[C@@H]1CC[C@@H]2O`: the EC50 – broadly, the concentration that produces a half-maximal response – on Estrogen receptor [1] came out at 2.79 nM; at Estrogen receptor [2], 342 nM; at Estrogen receptor [3], 10.3 nM; on Estrogen receptor [4], 146 nM.
Compound `C[C@]12CC[C@@H]3c4cc(C=O)c(O)cc4CC[C@H]3[C@@H]1CC[C@@H]2O` displayed an EC50 at Estrogen receptor [2] of 782 nM.
Consider `C[C@]12CC[C@@H]3c4cc(CCO)c(O)cc4CC[C@H]3[C@@H]1CC[C@@H]2O`, for which the concentration for a half-maximal effect (EC50) on Estrogen receptor [2] was 4890 nM; at Estrogen receptor [3] it was 272 nM.
`C[C@]12CC[C@@H]3c4cc(O)c(O)cc4CC[C@H]3[C@@H]1CC[C@@H]2O`: the half-maximal effective concentration (EC50) at Estrogen receptor [2] came out at 1660 nM; on Estrogen receptor [3], 504 nM.
